Experimental data as given in patent US8871777B2, “Phenylpyrimidone compounds, the pharmaceutical compositions, preparation methods and uses thereof” (Topharman Shanghai Co., Ltd., priority 2008, dated 2014).
Read-outs that look alike come from different tables or passages of the source.

Tests used:
[1] = target: T1, human blood platelet PDE5 (Homo sapiens, UniProt O76074); test: PDE5 enzyme inhibition activity test (scintillation proximity); format: biochemical
T1 construct: obtained by suitably treating various tissues and separating the enzyme with FPLC; from tissue; host or cells: human blood platelets
Protocol: (§1) More specifically, PDE5 and PDE3 were obtained from human blood platelet, and PDE6 was separated from bovine retina. Upon enzyme was separated out, the enzyme inhibition activity test would be carried out immediately. The said enzyme inhibition activity test was performed by directly detecting the scintillation proximity of AMP/GMP using TRKQ7100 and TRKQ7090 kits, which was generally as follows. In the presence of different concentrations of inhibitor and a small amount of substrate, 10 μl of buffer (50 mM Tris/HCl PH 7.5, 8.3 mM MgCl2, 1.7 mM EGTA) was added, and then water was added to a final volume of 100 μl. The reaction was initiated with a fixed amount of enzyme, incubated at 30° C. for 30 min, and then quenched with 50 μl of yttrium silicate beads comprising zinc sulphate. After shaken for 20 min, the reaction mixture was put in dark and settled for 30 min, and then readed on a BECKMAN LS6500 MULTI-PURPOSE SCINTILLATION COUNTER.

PDE6 in bovine retina = target: T2, PDE6 in bovine retina (Bos taurus, UniProt P11541+P23439); test: PDE6 enzyme inhibition activity test (scintillation proximity); format: biochemical; conditions: for PDE6 IC50/PDE5 IC50: selectivity, ratio of IC50 PDE6/IC50 PDE5
T2 construct: obtained by suitably treating various tissues and separating the enzyme with FPLC; from tissue; host or cells: bovine retina
T2 sequence (P11541 2-856 limits assumed): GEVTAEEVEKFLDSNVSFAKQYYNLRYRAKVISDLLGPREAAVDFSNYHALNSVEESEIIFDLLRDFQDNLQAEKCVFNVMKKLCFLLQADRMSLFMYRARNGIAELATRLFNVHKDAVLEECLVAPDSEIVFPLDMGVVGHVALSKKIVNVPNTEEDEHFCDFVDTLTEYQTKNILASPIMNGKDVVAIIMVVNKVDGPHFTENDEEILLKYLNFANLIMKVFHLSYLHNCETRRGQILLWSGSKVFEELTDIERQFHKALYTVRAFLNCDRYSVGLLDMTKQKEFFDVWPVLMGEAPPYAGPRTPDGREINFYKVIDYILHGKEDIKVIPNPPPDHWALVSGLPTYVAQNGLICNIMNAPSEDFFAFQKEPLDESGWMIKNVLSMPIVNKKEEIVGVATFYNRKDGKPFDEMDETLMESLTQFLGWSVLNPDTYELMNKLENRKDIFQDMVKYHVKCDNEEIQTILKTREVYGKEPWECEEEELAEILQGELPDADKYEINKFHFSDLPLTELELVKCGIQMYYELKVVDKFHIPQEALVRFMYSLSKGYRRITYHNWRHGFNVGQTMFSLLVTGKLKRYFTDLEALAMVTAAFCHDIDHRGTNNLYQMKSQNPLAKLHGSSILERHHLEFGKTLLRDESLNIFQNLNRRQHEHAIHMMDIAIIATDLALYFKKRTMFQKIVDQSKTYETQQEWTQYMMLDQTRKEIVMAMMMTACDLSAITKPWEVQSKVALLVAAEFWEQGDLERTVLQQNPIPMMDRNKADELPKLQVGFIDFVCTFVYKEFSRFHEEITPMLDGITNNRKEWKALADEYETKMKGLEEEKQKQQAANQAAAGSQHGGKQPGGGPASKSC
T2 sequence (P23439 2-850 limits assumed): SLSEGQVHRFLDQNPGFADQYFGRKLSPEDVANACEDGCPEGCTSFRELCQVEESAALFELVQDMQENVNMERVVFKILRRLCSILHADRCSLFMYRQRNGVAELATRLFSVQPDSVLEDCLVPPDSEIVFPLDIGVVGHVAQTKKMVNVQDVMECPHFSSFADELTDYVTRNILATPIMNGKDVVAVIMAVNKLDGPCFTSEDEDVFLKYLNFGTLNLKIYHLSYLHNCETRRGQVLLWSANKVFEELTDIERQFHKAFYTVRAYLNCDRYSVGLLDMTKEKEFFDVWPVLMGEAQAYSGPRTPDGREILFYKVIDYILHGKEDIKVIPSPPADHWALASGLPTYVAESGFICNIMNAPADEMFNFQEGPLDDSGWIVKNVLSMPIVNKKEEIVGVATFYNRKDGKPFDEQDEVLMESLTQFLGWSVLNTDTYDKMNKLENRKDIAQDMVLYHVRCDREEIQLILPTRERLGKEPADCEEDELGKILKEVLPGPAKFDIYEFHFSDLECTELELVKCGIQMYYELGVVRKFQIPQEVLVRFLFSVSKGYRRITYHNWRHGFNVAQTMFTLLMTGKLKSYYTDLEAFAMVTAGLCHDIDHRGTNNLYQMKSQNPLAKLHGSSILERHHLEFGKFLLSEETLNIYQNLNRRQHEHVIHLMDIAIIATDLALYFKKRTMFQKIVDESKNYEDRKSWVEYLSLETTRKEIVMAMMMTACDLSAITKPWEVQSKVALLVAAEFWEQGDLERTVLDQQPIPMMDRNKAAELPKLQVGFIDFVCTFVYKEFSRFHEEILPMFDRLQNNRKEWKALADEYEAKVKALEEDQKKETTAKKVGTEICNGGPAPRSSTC
Protocol: as §1

[2] = PDE6 separated from bovine retina, read-out: PDE6 IC50

Row | IC50 ([1]; PDE5 table) | IC50 ([1]; as repeated in the PDE6 table) | IC50 (PDE6 in bovine retina; [2]) | PDE6 IC50/PDE5 IC50 (PDE6 in bovine retina) | Compound | IC50 (PDE6 in bovine retina)
1 | 1.13 nM | 1.31 nM | 20.9 nM | 15.9 | CCCOc1ccc(S(=O)(=O)N2CCN(CCO)CC2)cc1-c1nc(CC)c(CC)c(=O)[nH]1 [Example 133, 5,6-diethyl-2-(2-n-propoxy-5-(4-hydroxyethyl-1-piperazinylsulfonyl)phenyl]pyrimid-4(3H)-one] | 
2 | 0.61 nM | 0.61 nM | 7.82 nM | 12.8 | CCCOc1ccc(C(=O)N2CCCC2C(=O)OC)cc1-c1nc(CC)c(CC)c(=O)[nH]1 (centres unmarked) [Example 139] | 
3 | 0.57 nM | 0.57 nM | 4.25 nM | 7.5 | CCCOc1ccc(C(=O)NC(Cc2ccc(O)cc2)C(=O)OC)cc1-c1nc(CC)c(CC)c(=O)[nH]1 (centres unmarked) [Example 140, methyl 2-(3-(4,5-diethyl-1,6-dihydro-6-oxopyrimidin-2-yl)-4-n-propoxybenzamido)-3-(4-hydroxyphenyl)propionate] | 
4 | 0.47 nM | 0.47 nM | 5.42 nM | 11.4 | CCCOc1ccc(C(=O)NC(Cc2ccccc2)C(=O)O)cc1-c1nc(CC)c(CC)c(=O)[nH]1 (centres unmarked) [Example 138, 2-(3-(4,5-diethyl-1,6-dihydro-6-oxopyrimidin-2-yl)-4-n-propoxybenzamido)-3-phenylpropionic acid] | 
5 | 0.47 nM | 0.47 nM | 24.2 nM | 51.5 | CCCOc1ccc(C(=O)NC(C)C(=O)O)cc1-c1nc(CC)c(CC)c(=O)[nH]1 (centres unmarked) [Example 145, 2-(3-(4,5-diethyl-1,6-dihydro-6-oxopyrimidin-2-yl)-4-n-propoxybenzamido)propionic acid] | 
6 | 0.34 nM | 0.34 nM | 7.4 nM | 21.4 | CCCOc1ccc(NC(=O)c2ccccc2)cc1-c1nc(CC)c(CC)c(=O)[nH]1 [Example 186, N-(3-(4,5-diethyl-1,6-dihydro-6-oxopyrimidin-2-yl)-4-n-propoxyphenyl)benzamide] | 
7 | 1.01 nM | 1.01 nM | 9.66 nM | 9.6 | CCCOc1ccc(S(=O)(=O)N(CCO)CCN2CCOCC2)cc1-c1nc(CC)c(CC)c(=O)[nH]1 [Example 135, 5,6-diethyl-2-(2-n-propoxy-5-(N-(2-morpholinylethyl)-N-(2-hydroxyethyl)aminosulfonyl)phenyl)pyrimid-4(3H)-one] | 
8 | 0.93 nM | 0.93 nM | 6.64 nM | 7.2 | CCCOc1ccc(C(=O)NC(CC(N)=O)C(=O)O)cc1-c1nc(CC)c(CC)c(=O)[nH]1 (centres unmarked) [Example 146, 2-(3-(4,5-diethyl-1,6-dihydro-6-oxopyrimidin-2-yl)-4-n-propoxybenzamido)-3-aminoformylpropionic acid] | 

More lines, now with the values behind:

Row | Compound | IC50 ([1]; PDE5 table) | IC50 ([1]; as repeated in the PDE6 table) | IC50 (PDE6 in bovine retina; [2]) | PDE6 IC50/PDE5 IC50 (PDE6 in bovine retina) | IC50 (PDE6 in bovine retina)
9 | CCCOc1ccc(NC(=O)N2CCCC2)cc1-c1nc(CC)c(CC)c(=O)[nH]1 [Example 49] | 1.86 nM | 1.86 nM | 620 nM | 10.5 | 
10 | CCCOc1ccc(NC(=S)NCC)cc1-c1nc(CC)c(CC)c(=O)[nH]1 [Example 43, 1-(3-(4,5-Diethyl-1,6-dihydro-6-oxopyrimidin-2-yl)-4-n-propoxyphenyl)-3-ethylthiourea] | 3.72 nM | 3.72 nM | 42.8 nM | 11.5 | 
11 | CCCOc1ccc(NC(=O)C(Cc2ccccc2)NC(C)=O)cc1-c1nc(CC)c(CC)c(=O)[nH]1 (centres unmarked) [Example 110, 2-acetamido-N-(3-(4,5-diethyl-1,6-dihydro-6-oxopyrimidin-2-yl)-4-n-propoxyphenyl)-3-phenylpropionamide] | 2.85 nM | 2.85 nM | 22.2 nM | 7.80 | 
12 | CCCOc1ccc(S(=O)(=O)NCCS(=O)(=O)O)cc1-c1nc(CC)c(CC)c(=O)[nH]1 [Example 125, 2-(N-(3-(4,5-diethyl-1,6-dihydro-6-oxopyrimidin-2-yl)-4-n-propoxyphenyl)sulfonyl)aminoethylsulfonic acid] | 0.19 nM | 0.19 nM |  | 14.6 | 2.71 nM
13 | CCCOc1ccc(S(=O)(=O)NCCCS(=O)(=O)O)cc1-c1nc(CC)c(CC)c(=O)[nH]1 [Example 124, 3-(N-(3-(4,5-diethyl-1,6-dihydro-6-oxopyrimidin-2-yl)-4-n-propoxyphenyl)sulfonyl)aminopropylsulfonic acid] | 0.13 nM | 0.13 nM | 3.76 nM | 28.6 | 
14 | CCCOc1ccc(S(=O)(=O)NCCN2CCOCC2)cc1-c1nc(CC)c(CC)c(=O)[nH]1 [Example 31, 5,6-diethyl-2-{2-n-propoxy-5-[N-(2-morpholinylethyl)aminosulfonyl)phenyl}pyrimid-4(3H)-one] | 1.36 nM | 1.36 nM | 52.8 nM | 38.8 | 
15 | CCCOc1ccc(NC(=O)CC(=O)OCC)cc1-c1nc(CC)c(CC)c(=O)[nH]1 [Example 102, ethyl N-(3-(4,5-diethyl-1,6-dihydro-6-oxopyrimidin-2-yl)-4-n-propoxyphenyl)aminoformylacetate] | 4.61 nM | 4.61 nM | 24.6 nM | 5.33 | 
16 | CCCOc1ccc(C(=O)N2CCCC2C(N)=O)cc1-c1nc(CC)c(CC)c(=O)[nH]1 (centres unmarked) [Example 61] | 1.93 nM | 1.93 nM | 29.1 nM | 15.1 | 
17 | CCCOc1ccc(NS(C)(=O)=O)cc1-c1nc(CC)c(CC)c(=O)[nH]1 [Example 51, 5,6-Diethyl-2-(2-n-propoxy-5-mesylamidophenyl)pyrimid-4(3H)-one] | 1.23 nM | 1.23 nM | 34.8 nM | 28.3 | 
18 | CCCOc1ccc(N/C(=N/CC)N(CC)CC)cc1-c1nc(CC)c(CC)c(=O)[nH]1 [Example 46, N-[3-(4,5-diethyl-1,6-dihydro-6-oxopyrimidin-2-yl)-4-n-propoxyphenyl]-N′,N″-triethylguanidine] | 1.09 nM | 1.09 nM | 642 nM | 589.0 | 
19 | CCCOc1ccc(NC(C)=O)cc1-c1nc(CC)c(CC)c(=O)[nH]1 [Example 53, N-(3-(1,6-dihydro-4,5-diethyl-6-oxopyrimidin-2-yl)-4-propoxyphenyl)acetamide] | 0.57 nM | 0.57 nM | 36.8 nM | 66.2 | 
20 | CCCOc1ccc(C(=O)N2CCOCC2)cc1-c1nc(C(C)C)c(Br)c(=O)[nH]1 [Example 63, (Morpholin-1-yl)(3-(4-isopropyl-5-bromo-1,6-dihydro-6-oxopyrimidin-2-yl)-4-n-propoxy)benzophenone] | 1.24 nM | 1.24 nM | 33.4 nM | 26.9 | 
